For data set [1], the target named is T1, CaVα1CaVβ3 interaction (Rattus norvegicus, UniProt P54287).
T1 construct: made in house; host or cells: E. coli BL21(DE3)
The experiment in a line: fluorescence polarization assay, inhibition constant. The format is binding. To be noted: for Ki: fluorescence polarization assay. As for the experimental part:
The plasmid of pET28a-CaV2.2β3 subunit was transformed into competent E. Coli BL21(DE3) strain. Culture was grown in LB medium at 37° C. to an OD600 of approximately 0.6 and then induced with 0.5 mM IPTG at 16° C. for 16 h. Cells were collected by centrifugation and lysed by microfluidizer in lysis buffer (phosphate buffer, pH 7.6, 2 mM DTT). The His-CaVβ3 protein was purified at 4° C. using Ni-IMAC chromatography (His-Trap HP, GE Healthcare) and eluted with 500 mM imidazole in lysis buffer with a gradient method. After the fractions consisted of His-CaVβ3 was combined and concentrated, the protein was further purified using size exclusion chromatography (Superdex 200 pg, GE Healthcare) in PBS with 2 mM DTT.
Compound 6 forms a salt bridge interaction with Arg-307 through a benzoic acid moiety. […] Arg-307 was mutated to alanine.

In data set [2] the test system is tibial nerve injury (TNI) model of neuropathic pain. Briefly: tibial nerve injury (TNI) model of neuropathic pain, von Frey withdrawal threshold. The format is in vivo, rat. As for the experimental part: Pathogen-free, adult, female Sprague Dawley (weight at testing 150-200 g; Harlan-Sprague-Dawley, Indianapolis, IN) were housed in a climate-controlled room on a 12-hour light/dark cycle and were allowed to have food and water ad libitum. All procedures were approved by the Indiana University Animal Care and Use Committee and conformed to the guidelines of the National Institutes of Health (publication no. 80-23, 1966) for the use of laboratory animals. All behavioral experiments were conducted by experimenters blinded to the treatment conditions and compound identity. The experiments were replicated a minimum of 2 times with independent cohorts of animals.
For in vivo studies, the inventive compounds were freshly prepared saline (0.9%) on the day of the experiment. Morphine sulfate salt (Sigma-Aldrich, St. Louis, MO) was freshly prepared on the day of the experiment in saline. […]
The inventive compounds were assessed with the tibial nerve injury (TNI) model of neuropathic pain 28 days after surgery. Using isoflurane anesthesia (4% induction and 2% maintenance), the right sciatic nerve was isolated under aseptic surgical conditions by blunt dissection of the femoral biceps muscle and the tibial nerve was tightly ligated with 5-0 silk and transected distal to the ligation. Additional 2 to 3 mm of distal nerve stump was removed to prevent reinnervation by the proximal nerve. The overlying muscle and skin was then sutured in 2 separate layers. Sham-injured animals were subjected to all preceding procedures with the exception of ligation and transection. All animals were returned to the housing facility and allowed to survive for 28 d. Mechanical stimuli were applied with 7 filaments, each differing in the bending force delivered (10, 20, 40, 60, 80, 100, and 120 mN), and fitted with a flat tip and fixed diameter of 0.2 mm. The filaments were tested in the order of ascending force, with each filament delivered for 1 second. Withdrawal threshold was determined by sequentially increasing and analyzed with Hill equation was fitted to the function (Origin version 6.0; Microcal Software) relating the percentage of indentations eliciting a withdrawal to the force of indentation.

Data set [3] deals with T2, CaV2.2 channels in HEK-CaV2.2 cells (Rattus norvegicus).
T2 construct: expressed in transfected cells
T2 sequence (P54287 whole entry): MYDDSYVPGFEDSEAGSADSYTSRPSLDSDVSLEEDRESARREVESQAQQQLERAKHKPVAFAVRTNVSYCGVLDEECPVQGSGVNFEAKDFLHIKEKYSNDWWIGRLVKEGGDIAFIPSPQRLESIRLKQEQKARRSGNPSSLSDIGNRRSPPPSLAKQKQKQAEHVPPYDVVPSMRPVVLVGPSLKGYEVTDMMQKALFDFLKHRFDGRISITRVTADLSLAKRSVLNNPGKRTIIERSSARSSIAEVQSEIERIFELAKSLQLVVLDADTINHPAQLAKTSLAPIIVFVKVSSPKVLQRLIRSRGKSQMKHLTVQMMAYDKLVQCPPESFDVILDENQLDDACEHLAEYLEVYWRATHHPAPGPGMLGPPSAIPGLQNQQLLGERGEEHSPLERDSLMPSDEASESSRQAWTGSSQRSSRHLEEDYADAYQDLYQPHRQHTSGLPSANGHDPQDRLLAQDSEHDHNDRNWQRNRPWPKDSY
Briefly: whole cell patch-clamp, CaV2.2 currents in HEK-CaV2.2 cells. The format is cell-based. As for the experimental part:
The G-V curves are shown.
HEK-CaV2.2 cells were pretreated with various concentrations of compound 14 for 48 hours. CaV2.2 currents were acquired during 20-ms depolarizing pulses, and the current densities were calculated as a ratio of the peak current amplitude and each cell capacitance (0.1 μM, n=6; 1 μM, n=7; 10 μM, n=8; 50 μM, n=12). The line is the fit of the data to the four-parameter logistic function.
EK-CaV2.2 cells were pretreated with the indicated compounds for 48 hours. *** corresponds to […].
FIGS. 8 and 9 show the effects of 2 and 14 on the voltage dependence of activation of CaV2.2 channels in HEK-CaV2.2 cells pretreated with the vehicle or the indicated compounds for 48 hours. […] The gray vertical lines are the error bars (S.E.M.).
FIGS. 10 and 11 show acute effects of DMSO and 14 on the voltage dependence of activation of CaV2.2 channels in HEK-CaV2.2 cells. […] The gray vertical lines are the error bars (S.E.M.). “ns”—stands for not significant.
The whole cell patch-clamp technique was used to record CaV2.2 currents in HEK-CaV2.2 cells and rat DRG neurons. HEK293 cells that stably expressed rat N-type CaV2.2α1B, rat CaVβ3, and rat […] were utilized. Cells were grown in Dulbecco's modified Eagle's medium (DMEM) supplemented with 10% FBS, 50 units penicillin, 50 μg/ml streptomycin, 5 μg/ml blasticidin, 5 μg/ml hydromycin and 25 μg/ml zeozin at 37° C. in a humidified atmosphere of 95% air and 5% CO2. For patch clamp experiments, HEK-CaV2.2 cells were plated on glass coverslips and were cultured for 24-48 h. All animal procedures were performed in accordance to the NIH guide and were approved by the Indiana University School of Medicine Institutional Animal Care and Use Committee. Young adult Sprague Dawley rats were anesthetized (3% isoflurane) and then decapitated. The spinal column was removed, cut open, and dorsal root ganglia were harvested from the Lumbar L4-L6 vertebral levels. The ganglia were incubated in DMEM containing collagenase (1 mg/ml, Worthington: LS04194) and protease (1 mg/ml, Worthington: LS02104) for 30-60 minutes, and DRG neurons were dissociated by triturating in DMEM supplemented with 10% FBS. The isolated DRG neurons were plated on glass coverslips coated with growth factor reduced Matrigel (Thermo Fisher Scientific, Waltham, MA) and were cultured in Eagle's minimum essential medium (Invitrogen, CA) supplemented with 0.2% BSA and 20 ng/ml NGF-2.5S (BD Biosciences, Bedford, MA) at 37° C. in a water-jacketed 5% CO2 incubator overnight for the patch-clamp experiments.

Data set [4] in a line: pharmacokinetics, plasma concentrations by LC-MS/MS after IV and PO administration. Type of data set: in vivo, Kunming mice. To be noted: Kunming, mouse; for half-life: read-out: elimination half-life (converted); for Cmax: read-out: Cmax peak plasma concentration. As for the experimental part: Plasma concentrations at various time points were determined using liquid chromatography tandem mass spectroscopy (LC-MS/MS). For intravenous (IV) administration, compound 14 was formulated as a solution at a final dose of 1 mg/kg.
For oral gavage (PO) administration, compound 14 was formulated as a solution at a final dose of 10 mg/kg. Plasma concentrations at various time points were determined using LC-MS/MS.
PK profiles of compound 14 after intravenous and oral administration was performed in Kunming mice. Plasma concentrations were determined by liquid chromatography tandem mass spectroscopy. Summary of PK properties and plasma concentration measured 1 hour after intravenous or oral administration of 1 or 10 mg/kg compound 14.

“Also recorded” adds a separate entry of the source. Where two headings read alike, the source gives them in different places.

T1 sequence (P54287 whole entry): as above

`COc1ccc(C2=NN(C(=O)CCC(=O)O)C(c3cn(-c4ccccc4)nc3-c3ccc(C)cc3)C2)cc1` (centres unmarked) [Compound 1]: the Ki in data set [1] amounted to 6.7 ± 0.3 µM.

For `Cc1ccc(-c2nn(-c3ccccc3)cc2C2CC(c3ccc(-c4ccccn4)cc3)=NN2C(=O)CCC(=O)O)cc1` (centres unmarked) [Compound 4, 4-oxo-4-(1′-phenyl-5-(4-(pyridin-2-yl)phenyl)-3′-(p-tolyl)-3,4-dihydro-1′H,2H-[3,4′-bipyrazol]-2-yl)butanoic acid], the Ki in data set [1] was 2.2 ± 0.3 µM. This Ki is about 3-fold lower than that of the molecule before.

On to `COC(=O)c1cccc(C(=O)N2N=C(c3ccc(OC)cc3)CC2c2cn(-c3ccccc3)nc2-c2ccc(C)cc2)c1` (centres unmarked) [Compound 7, methyl 3-(5-(4-methoxyphenyl)-1′-phenyl-3′-(p-tolyl)-3,4-dihydro-1′H,2H-[3,4′-bipyrazole]-2-carbonyl)benzoate], for which the “inhibition of the CaVα1CaVβ3 interaction” value in data set [1] (removal of the charge of the benzoic acid moiety) is “complete loss of inhibition”.

Molecule `COc1ccc(C2=NN(C(=O)c3cccc(C(=O)O)c3)C(c3cn(-c4ccccc4)nc3-c3ccc(Cl)cc3)C2)cc1` (centres unmarked) [Compound 8, 3-(3′-(4-chlorophenyl)-5-(4-methoxyphenyl)-1′-phenyl-3,4-dihydro-1′H,2H-[3,4′-bipyrazole]-2-carbonyl)benzoic acid] displayed an inhibitory constant (Ki) in data set [1] of 1.2 ± 0.1 µM.

For the molecule `COc1ccc(C2=NN(C(=O)c3cccc(C(=O)O)c3)C(c3cn(-c4ccc(OC)cc4)nc3-c3ccc(C)cc3)C2)cc1` (centres unmarked) [Compound 10, 3-(1′,5-bis(4-methoxyphenyl)-3′-(p-tolyl)-3,4-dihydro-1′H,2H-[3,4′-bipyrazole]-2-carbonyl)benzoic acid], affinity in data set [1] was put at a Ki of 3.7 ± 0.2 µM.

Take `COc1ccc(C2=NN(c3cccc(C(=O)O)c3)C(c3cn(-c4ccccc4)nc3-c3ccc(C)cc3)C2)cc1` (centres unmarked) [Compound 11, 3-(5-(4-methoxyphenyl)-1′-phenyl-3′-(p-tolyl)-3,4-dihydro-1′H,2H-[3,4′-bipyrazol]-2-yl)benzoic acid]: the inhibition constant Ki in data set [1] worked out at 3.9 ± 0.9 µM.

For the molecule `COc1ccc(C2=NN(C(=O)c3cccc(C(=O)O)c3)C(c3cn(-c4cccnc4)nc3-c3ccc(C)cc3)C2)cc1` (centres unmarked) [Compound 12, 3-(5-(4-methoxyphenyl)-1′-(pyridin-3-yl)-3′-(p-tolyl)-3,4-dihydro-1′H,2H-[3,4′-bipyrazole]-2-carbonyl)benzoic acid], the Ki in data set [1] was 5 ± 1.9 µM.

As for `COc1ccc(C2=NN(C(=O)c3cccc(-c4nnn[nH]4)c3)C(c3cn(-c4ccccc4)nc3-c3ccc(C)cc3)C2)cc1` (centres unmarked) [Compound 14, (3-(1H-tetrazol-5-yl)phenyl)(5-(4-methoxyphenyl)-1′-phenyl-3′-(p-tolyl)-3,4-dihydro-1′H,2H-[3,4′-bipyrazol]-2-yl)methanone], the “reversal of mechanical hypersensitivity (PWT)” value in data set [2] (0.1 mg/kg single bolus, 1 and 24 h post-dosing, 4 weeks after TNI) is “significantly reversed mechanical hypersensitivity at both 1 and 24 h post-dosing; also recorded: significantly increased PWTs at both 1 and 24 hours post-injection”. Also, the “steady-state inactivation V0.5, inact” value in data set [3] (50 μM, pretreated 48 hours) is recorded as −52.9±1.3 mV. In data set [3] (pretreated 48 hours, current densities, four-parameter logistic fit, read-out: apparent IC50 for inhibition of CaV2.2 currents), the concentration for half-maximal inhibition (IC50) came to 31 µM. Also, in data set [3] (pretreated 48 hours, DMSO 8.7±1.1), the “mean half-activation potential V0.5, act” value turned out to be 16.5±1.1 mV. The molecule also yielded an inhibition constant Ki in data set [1] of 2 ± 0.2 µM. For the same molecule, in data set [4] (IV, 1 mg/kg), the half-life is 17.4 min. In data set [4] (iv, 1 mg/kg), the exposure AUC(0-t) was 58 ng·h/mL, the time to peak (Tmax) was determined as 4.98 min and the Cmax came out at 181 ng/mL. In data set [4] (oral gavage (PO), 10 mg/kg), the AUC(0-t) turned out to be 636 ng·h/mL, the Tmax amounted to 60 min, the Cmax was 165 ng/mL and the half-life is 119 min.

Turning to `COc1ccc(C2=NN(C(=O)c3cccc(C(=O)O)c3)C(c3cn(-c4ccccc4)nc3-c3ccc(-c4ncc[nH]4)cc3)C2)cc1` (centres unmarked) [Compound 15, 3-(3′-(4-(1H-imidazol-2-yl)phenyl)-5-(4-methoxyphenyl)-1′-phenyl-3,4-dihydro-1′H,2H-[3,4′-bipyrazole]-2-carbonyl)benzoic acid], the “half-activation voltage V0.5, act after acute treatment” value in data set [3] (50 μM, 5 min incubation, before 6.4±1.9) is 11.4±1.7 mV. Also, the “density of CaV2.2 currents” value in data set [3] (50 μM, pretreated 48 hours, depolarizing pulses to 0 mV from holding potential −80 mV, DMSO −74.8±7.0) is reported as −11.1±2.4 pA/pF.

Consider `CN1CC[C@]23c4c5ccc(O)c4O[C@H]2[C@@H](O)C=C[C@H]3[C@H]1C5.O=S(=O)(O)O` [morphine, Morphine sulfate salt, reference compound], for which, in data set [2] (5 mg/kg systemic, 28 days after TNI), the “withdrawal threshold to von Frey stimulation” value is reported as 32±2.6 mN.

The values above are taken from patent US11999720B2, “Pyrazolylacylpyrazoline compounds and method for treating pain” (THE TRUSTEES OF INDIANA UNIVERSITY, priority 2018, dated 2024).
